Paper PMC5933782, “Molecular structures of cdc2-like kinases in complex with a new inhibitor chemotype” (PLoS ONE, 2018)

How the values were obtained:
CLK1 = CLK1 (Mus musculus, UniProt P22518); test: radiometric protein kinase assay
Method: Buffer A: 10 mM MgCl2, 1 mM EGTA, 1 mM DTT, 25 mM Tris-HCl pH 7.5, 50 μg heparin/mL. Buffer C: 60 mM β-glycerophosphate, 15 mM p-nitrophenylphosphate, 25 mM MOPS (pH 7.2), 15 mM EGTA, 15 mM MgCl2, 1 mM DTT, 1 mM sodium vanadate, 1 mM phenylphosphate.
Controls were performed with appropriate dilutions of DMSO. The GS-1, CKS, CDK7/9 tide and RS peptide substrates were obtained from Proteogenix (Oberhausbergen, France).
CDK1/cyclin B (M phase starfish oocytes, native), CDK2/cyclin A and CDK5/p25 (human, recombinant) were prepared as previously described [33]. […] ATP (3,000 Ci/mmol; 10 mCi/mL) in a final volume of 30 μL. After 30 min incubation at 30°C, the reaction was stopped by harvesting onto P81 phosphocellulose supernatant (Whatman) using a FilterMate harvester (Packard) and washing in 1% phosphoric acid. Scintillation fluid was added and the radioactivity measured in a Packard counter.
All data points for construction of dose response curves were recorded in triplicate.

HOP-92 = test: NCI cancer cell line screening; format: cell-based; conditions: Homo sapiens; HOP-92, Non-Small Cell Lung Cancer
Method: (§1) Being the most promising compound in terms of CLK1 inhibitory potency and selectivity, KuWal151 (8c) was tested in the National Cancer Institute cancer cell line screening on 57 tumor cell lines of different tissue origin [45]. With only a few exceptions, KuWal151 inhibited the growth of most cell lines in submicromolar concentrations. In Table 2 the cancer cell line inhibition data is listed with the expression rates of SPF45 and CLK1 as indicated in the Expression Atlas database (https://www.ebi.ac.uk/gxa/home). Apparently the cell lines with high levels of CLK1 encoding RNA are inhibited over average. […] However, the available data are not sufficient to construe a clear relationship between the expression levels of the putative target CLK1 and sensitivity of the cell lines against 8c. The same holds true for SPF45, an important substrate of CLK1 involved in splicing which is found to be overexpressed in many cancer cell lines. […] The lack of a straight relationship between CLK1 and/or SPF45 expression levels on the one hand and sensitivity against the CLK1 inhibitor 8c on the other hand may have various reasons, e.g. different uptake rates of the inhibitor by the cells or alternative intracellular targets. For verification of the results from the NCI screening, which is based on the in situ fixation of cells followed by staining with the protein-binding dye sulforhodamin B [47, 48], 8c was also tested on two cell lines of the NCI panel (HT-29 and MDA-MB-231) in a crystal violet assay.

OVCAR-5 = test: NCI cancer cell line screening; format: cell-based; conditions: Homo sapiens; OVCAR-5, Ovarian Cancer
Method: as §1

COLO 205 = test: NCI cancer cell line screening; format: cell-based; conditions: Homo sapiens; COLO 205, Colon Cancer
Method: as §1

HL-60(TB) = test: NCI cancer cell line screening; format: cell-based; conditions: Homo sapiens, Leukemia
Method: as §1

M14 = test: NCI cancer cell line screening; format: cell-based; conditions: Homo sapiens; M14, Melanoma
Method: as §1

SNB-75 = test: NCI cancer cell line screening; format: cell-based; conditions: Homo sapiens; SNB-75, CNS Cancer
Method: as §1

MOLT-4 = test: NCI cancer cell line screening; format: cell-based; conditions: Homo sapiens; MOLT-4, Leukemia
Method: as §1

K-562 = test: NCI cancer cell line screening; format: cell-based; conditions: Homo sapiens, K562; K-562, Leukemia
Method: as §1

TK-10 = test: NCI cancer cell line screening; format: cell-based; conditions: Homo sapiens; TK-10, Renal Cancer
Method: as §1

MDA-MB-435 = test: NCI cancer cell line screening; format: cell-based; conditions: Homo sapiens
Method: as §1

NCI-H460 = test: NCI cancer cell line screening; format: cell-based; conditions: Homo sapiens; NCI-H460, Non-Small Cell Lung Cancer
Method: as §1

SK-MEL-5 = test: NCI cancer cell line screening; format: cell-based; conditions: Homo sapiens; SK-MEL-5, Melanoma
Method: as §1

LOX IMVI = test: NCI cancer cell line screening; format: cell-based; conditions: Homo sapiens, Melanoma
Method: as §1

SK-OV-3 = test: NCI cancer cell line screening; format: cell-based; conditions: Homo sapiens; SK-OV-3, Ovarian Cancer
Method: as §1

ACHN = test: NCI cancer cell line screening; format: cell-based; conditions: Homo sapiens, Renal Cancer
Method: as §1

HCT-116 = test: NCI cancer cell line screening; format: cell-based; conditions: Homo sapiens; HCT-116, Colon Cancer
Method: as §1

SN12C = test: NCI cancer cell line screening; format: cell-based; conditions: Homo sapiens, Renal Cancer
Method: as §1

MCF7 = test: NCI cancer cell line screening; format: cell-based; conditions: Homo sapiens; MCF7, Breast Cancer
Method: as §1

SK-MEL-2 = test: NCI cancer cell line screening; format: cell-based; conditions: Homo sapiens; SK-MEL-2, Melanoma
Method: as §1

OVCAR-8 = test: NCI cancer cell line screening; format: cell-based; conditions: Homo sapiens; OVCAR-8, Ovarian Cancer
Method: as §1

SF-268 = test: NCI cancer cell line screening; format: cell-based; conditions: Homo sapiens; SF-268, CNS Cancer
Method: as §1

U251 = test: NCI cancer cell line screening; format: cell-based; conditions: Homo sapiens, U-251; U251, CNS Cancer
Method: as §1

BT-549 = test: NCI cancer cell line screening; format: cell-based; conditions: Homo sapiens; BT-549, Breast Cancer
Method: as §1

CDK5/p25 = molecular target: T1, CDK5/p25 (Homo sapiens, UniProt Q00535); test: radiometric protein kinase assay; format: biochemical; conditions: 15 μmol/L ATP
T1 construct: made in house

GSK-3 = test: radiometric protein kinase assay; format: biochemical, porcine; conditions: 15 μmol/L ATP; read-out: IC50 GSK3
DYRK3 = molecular target: T2, DYRK3 (Homo sapiens, UniProt O43781); test: radiometric protein kinase assay; format: biochemical; conditions: 15 μmol/L ATP; read-out: IC50 DYRK 3
T2 sequence (O43781 1-588): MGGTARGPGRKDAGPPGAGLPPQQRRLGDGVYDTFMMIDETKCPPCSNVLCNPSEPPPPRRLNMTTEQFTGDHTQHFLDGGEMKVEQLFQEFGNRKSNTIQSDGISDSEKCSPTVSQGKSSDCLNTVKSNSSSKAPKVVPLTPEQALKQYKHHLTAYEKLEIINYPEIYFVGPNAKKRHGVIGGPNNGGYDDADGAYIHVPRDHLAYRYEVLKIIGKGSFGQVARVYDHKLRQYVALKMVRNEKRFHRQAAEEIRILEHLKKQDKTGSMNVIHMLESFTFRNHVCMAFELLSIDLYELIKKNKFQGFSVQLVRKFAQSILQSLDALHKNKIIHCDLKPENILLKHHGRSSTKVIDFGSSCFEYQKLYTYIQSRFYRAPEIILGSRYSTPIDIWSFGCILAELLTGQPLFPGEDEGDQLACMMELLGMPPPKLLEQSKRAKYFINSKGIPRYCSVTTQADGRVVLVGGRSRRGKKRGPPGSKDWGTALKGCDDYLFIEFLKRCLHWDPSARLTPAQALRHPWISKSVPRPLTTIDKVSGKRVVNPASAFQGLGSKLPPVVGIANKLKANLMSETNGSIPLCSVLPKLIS

DYRK1A = DYRK1A (Homo sapiens, UniProt Q13627); test: radiometric protein kinase assay; format: biochemical; conditions: 15 μmol/L ATP; read-out: IC50 DYRK 1A

Chain of CLK1 (P22518 whole entry): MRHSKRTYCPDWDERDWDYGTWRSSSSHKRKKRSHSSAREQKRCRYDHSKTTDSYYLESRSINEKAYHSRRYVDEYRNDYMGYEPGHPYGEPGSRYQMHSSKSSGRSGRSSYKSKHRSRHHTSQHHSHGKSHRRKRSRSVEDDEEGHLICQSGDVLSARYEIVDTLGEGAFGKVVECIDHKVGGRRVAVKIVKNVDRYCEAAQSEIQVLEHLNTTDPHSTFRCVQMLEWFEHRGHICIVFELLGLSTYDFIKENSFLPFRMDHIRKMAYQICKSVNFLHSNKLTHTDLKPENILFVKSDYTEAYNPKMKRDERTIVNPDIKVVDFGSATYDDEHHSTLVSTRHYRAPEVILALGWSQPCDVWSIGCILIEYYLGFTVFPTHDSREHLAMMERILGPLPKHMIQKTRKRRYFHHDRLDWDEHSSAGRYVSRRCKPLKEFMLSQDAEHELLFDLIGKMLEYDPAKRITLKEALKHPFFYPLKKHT
T1 sequence (Q00535 whole entry): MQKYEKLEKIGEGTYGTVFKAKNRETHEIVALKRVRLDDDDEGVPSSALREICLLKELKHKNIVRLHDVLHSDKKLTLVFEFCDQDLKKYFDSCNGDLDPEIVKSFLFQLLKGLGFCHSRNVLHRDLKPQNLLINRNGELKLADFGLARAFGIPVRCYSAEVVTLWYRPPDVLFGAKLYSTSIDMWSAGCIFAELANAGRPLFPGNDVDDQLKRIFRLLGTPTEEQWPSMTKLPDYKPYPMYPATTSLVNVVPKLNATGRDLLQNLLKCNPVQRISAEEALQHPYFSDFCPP
T1 sequence (Q15078 99-307 partner limits assumed): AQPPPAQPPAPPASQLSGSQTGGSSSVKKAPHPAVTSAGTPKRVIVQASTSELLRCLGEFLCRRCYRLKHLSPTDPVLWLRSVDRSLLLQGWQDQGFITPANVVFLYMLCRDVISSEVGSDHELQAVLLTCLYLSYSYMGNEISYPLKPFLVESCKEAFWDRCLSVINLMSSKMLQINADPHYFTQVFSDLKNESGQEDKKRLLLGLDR

O=C1NCc2ccc3c(-c4cccc(Cl)c4)c[nH]c3c21 [8c, 3-(3-Chlorophenyl)-6,7-dihydropyrrolo[3,4-g]indol-8(1H)-one]
IC50 (CLK1): 88 nM
GI50 (HOP-92): 5620 nM
GI50 (OVCAR-5): 1250 nM
GI50 (COLO 205): 209 nM
GI50 (HL-60(TB)): 141 nM
GI50 (M14): 132 nM
GI50 (SNB-75): 151 nM
GI50 (MOLT-4): 257 nM
GI50 (K-562): 162 nM
GI50 (TK-10): 10200 nM
GI50 (MDA-MB-435; MDA-MB-435, MDA-MB-435, Melanoma): 72.4 nM
GI50 (MDA-MB-435; MDA-MB-435, MDA-MB-435, as quoted in text): 72 nM
GI50 (NCI-H460): 209 nM
GI50 (SK-MEL-5): 407 nM
GI50 (LOX IMVI): 245 nM
GI50 (SK-OV-3): 275 nM
GI50 (ACHN): 372 nM
GI50 (HCT-116): 191 nM
GI50 (SN12C): 331 nM
GI50 (MCF7): 174 nM
GI50 (SK-MEL-2): 316 nM
GI50 (OVCAR-8): 724 nM
GI50 (SF-268): 437 nM
GI50 (U251): 263 nM
GI50 (BT-549): 204 nM
IC50 (CDK5/p25): > 10000 nM
IC50 (GSK-3): > 10000 nM
IC50 (DYRK3): > 10000 nM
IC50 (DYRK1A): > 10000 nM
